Results: patent US11040035B2, “3-oxo-2,6-diphenyl-2,3-dihydropyridazine-4-carboxamides” (BAYER PHARMA AKTIENGESELLSCHAFT, priority 2016, dated 2021)

Tests used:
AHR [1] = molecular target: T1, AHR (Homo sapiens, UniProt P35869); assay: In vitro assay 1: antagonism in human cell line (transactivation assay, kynurenic acid prestimulated); conditions: Assay 1: AHR-luc Hum Antagonism IC50 [M], 150 μM kynurenic acid, 20 hours, firefly luciferase
T1 sequence (P35869 11-848): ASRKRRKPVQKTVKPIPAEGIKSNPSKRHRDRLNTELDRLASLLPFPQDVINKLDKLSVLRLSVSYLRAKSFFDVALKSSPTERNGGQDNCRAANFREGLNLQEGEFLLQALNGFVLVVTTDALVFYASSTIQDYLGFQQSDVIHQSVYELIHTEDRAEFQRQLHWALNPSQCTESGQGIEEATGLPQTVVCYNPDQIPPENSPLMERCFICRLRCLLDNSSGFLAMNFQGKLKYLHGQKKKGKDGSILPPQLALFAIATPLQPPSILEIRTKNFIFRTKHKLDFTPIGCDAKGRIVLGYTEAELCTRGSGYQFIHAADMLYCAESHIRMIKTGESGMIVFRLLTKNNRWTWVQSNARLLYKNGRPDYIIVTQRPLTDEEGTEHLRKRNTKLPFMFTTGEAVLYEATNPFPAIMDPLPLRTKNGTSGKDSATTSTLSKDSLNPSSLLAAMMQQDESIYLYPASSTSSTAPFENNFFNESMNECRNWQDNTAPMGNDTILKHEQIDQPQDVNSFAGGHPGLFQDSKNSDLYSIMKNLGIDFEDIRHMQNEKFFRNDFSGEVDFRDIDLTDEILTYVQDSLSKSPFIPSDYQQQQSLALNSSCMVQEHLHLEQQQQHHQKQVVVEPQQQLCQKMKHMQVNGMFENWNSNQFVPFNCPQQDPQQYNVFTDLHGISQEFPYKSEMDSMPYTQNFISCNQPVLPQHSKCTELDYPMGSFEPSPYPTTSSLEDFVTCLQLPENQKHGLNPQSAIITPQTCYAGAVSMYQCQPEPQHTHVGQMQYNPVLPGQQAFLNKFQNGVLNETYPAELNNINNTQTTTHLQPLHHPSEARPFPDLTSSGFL

AHR [2] = molecular target: T1, AHR; assay: In vitro assay 2: agonism in human cell line (transactivation assay)
[3] = Assay 2: AHR-luc Hum Agonism IC50 [M], no kynurenic acid, 20 hours, firefly luciferase
[4] = read-out: Assay 2: AHR-luc Hum Agonism IC50, no kynurenic acid, 20 hours, firefly luciferase

| IC50 (AHR [1]) [M] | IC50 (AHR [2]; [3]) [M] | IC50 (AHR [2]; [4]) [M] | Structure (SMILES) |
| --- | --- | --- | --- |
| 4.2e-07 | > 2e-05 | – | COC(=O)C(C)(C)CNC(=O)c1cc(-c2ccc(Cl)cc2)nn(-c2cccc(F)c2)c1=O [Example 398, methyl 3-({[6-(4-chlorophenyl)-2-(3-fluorophenyl)-3-oxo-2,3-dihydropyridazin-4-yl]carbonyl}amino)-2,2-dimethylpropanoate] |
| 4.18e-08 | > 2e-05 | – | O=C(N[C@@H]1CC[C@@H]1O)c1cc(-c2ccc(Cl)cc2)nn(-c2cccc(F)c2)c1=O (racemic) [Example 356, 6-(4-chlorophenyl)-2-(3-fluorophenyl)-N-(cis-2-hydroxycyclobutyl)-3-oxo-2,3-dihydropyridazine-4-carboxamide] |
| 7.32e-08 | > 2e-05 | – | O=C(NC(CO)Cc1cccnc1)c1cc(-c2ccc(Cl)cc2)nn(-c2cccc(F)c2)c1=O (racemic) [Example 338, 6-(4-chlorophenyl)-2-(3-fluorophenyl)-N-[(2RS)-1-hydroxy-3-(pyridin-3-yl)propan-2-yl]-3-oxo-2,3-dihydropyridazine-4-carboxamide] |
| 3.7e-07 | > 2e-05 | – | C[C@@H](CO)NC(=O)c1cc(-c2ccc(Cl)c(F)c2)nn(-c2cc(F)cc(F)c2)c1=O [Example 402, 6-(4-chloro-3-fluorophenyl)-2-(3,5-difluorophenyl)-N-[(2S)-1-hydroxypropan-2-yl]-3-oxo-2,3-dihydropyridazine-4-carboxamide] |
| 2.08e-07 | – | > 2e-05 | CC(O)C(NC(=O)c1cc(-c2ccc(C(F)(F)F)cc2)nn(-c2cccc(F)c2)c1=O)C(F)(F)F (single isomer, unassigned) [Example 350, 2-(3-fluorophenyl)-3-oxo-N-(1,1,1-trifluoro-3-hydroxybutan-2-yl)-6-[4-(trifluoromethyl)phenyl]-2,3-dihydropyridazine-4-carboxamide] |
| 4.84e-09 | > 2e-05 | – | O=C(NC(CO)C1CC1)c1cc(-c2ccc(C(F)(F)F)cc2)nn(-c2cccc(F)c2)c1=O (single isomer, unassigned; (-)) [Example 351, (−)-N-(1-cyclopropyl-2-hydroxyethyl)-2-(3-fluorophenyl)-3-oxo-6-[4-(trifluoromethyl)phenyl]-2,3-dihydropyridazine-4-carboxamide] |
| 4.34e-07 | > 2e-05 | – | O=C(NC(CO)C1CCOC1)c1cc(-c2ccc(Cl)cc2)nn(-c2cc(Cl)cc(Cl)c2)c1=O (stereo not shown) [Example 310, 6-(4-Chlorophenyl)-2-(3,5-dichlorophenyl)-N-[2-hydroxy-1-(tetrahydrofuran-3-yl)ethyl]-3-oxo-2,3-dihydropyridazine-4-carboxamide] |
| 1.29e-07 | > 2e-05 | – | O=C(NC(CO)C1CCOC1)c1cc(-c2ccc(Cl)c(F)c2)nn(-c2cccc(F)c2)c1=O (stereo not shown) [Example 287, 6-(4-Chloro-3-fluorophenyl)-2-(3-fluorophenyl)-N-[2-hydroxy-1-[-tetrahydrofuran-3-yl]ethyl]-3-oxo-2,3-dihydropyridazine-4-carboxamide] |
| 2.22e-07 | > 2e-05 | – | N#Cc1cccc(-n2nc(-c3ccc(Cl)cc3)cc(C(=O)NCC(O)C(F)(F)F)c2=O)c1 (single isomer, unassigned) [Example 363, 6-(4-chlorophenyl)-2-(3-cyanophenyl)-3-oxo-N-(3,3,3-trifluoro-2-hydroxypropyl)-2,3-dihydropyridazine-4-carboxamide] |
| 9.87e-07 | > 2e-05 | – | C[C@@H](CO)NC(=O)c1cc(-c2ccc(Cl)cc2)nn(-c2cc(Cl)cc(Cl)c2)c1=O [Example 309, 6-(4-Chlorophenyl)-2-(3,5-dichlorophenyl)-N-[(2S)-1-hydroxypropan-2-yl]-3-oxo-2,3-dihydropyridazine-4-carboxamide] |
| 1.69e-07 | – | > 2e-05 | CC(NC(=O)c1cc(-c2ccc(Cl)cc2)nn(-c2cccc(F)c2)c1=O)C(O)CO (single isomer, unassigned) [Example 347, 6-(4-chlorophenyl)-N-(3,4-dihydroxybutan-2-yl)-2-(3-fluorophenyl)-3-oxo-2,3-dihydropyridazine-4-carboxamide] |

Further lines, the compound ahead of its results:

| Structure (SMILES) | IC50 (AHR [1]) [M] | IC50 (AHR [2]; [3]) [M] | IC50 (AHR [2]; [4]) [M] |
| --- | --- | --- | --- |
| CC(C)[C@@H](CO)NC(=O)c1cc(-c2ccc(Cl)cc2)nn(-c2ccccc2)c1=O [Example 75, 6-(4-chlorophenyl)-N-[(2S)-1-hydroxy-3-methylbutan-2-yl]-3-oxo-2-phenyl-2,3-dihydropyridazine-4-carboxamide] | 3.45e-08 | > 2e-05 | – |
| O=C(N[C@H]1COC[C@@H]1O)c1cc(-c2ccc(Cl)cc2)nn(-c2cccc(F)c2)c1=O (single isomer, unassigned) [Example 136, 6-(4-Chlorophenyl)-2-(3-fluorophenyl)-N-(trans-4-hydroxytetrahydrofuran-3-yl)-3-oxo-2,3-dihydropyridazine-4-carboxamide] | 1.43e-07 | – | > 2e-05 |
| O=C(N[C@@H](CO)C(=O)O)c1cc(-c2ccc(Cl)cc2)nn(-c2cccc(F)c2)c1=O [Example 165, N-{[6-(4-Chlorophenyl)-2-(3-fluorophenyl)-3-oxo-2,3-dihydropyridazin-4-yl]carbonyl}-L-serine] | > 2e-05 | > 2e-05 | – |
| CC[C@@H](CO)NC(=O)c1cc(-c2ccc(C(F)F)cc2)nn(-c2cccc(F)c2)c1=O [Example 92, 6-[4-(Difluoromethyl)phenyl]-2-(3-fluorophenyl)-N-[(2S)-1-hydroxybutan-2-yl]-3-oxo-2,3-dihydropyridazine-4-carboxamide] | 1.2e-08 | > 2e-05 | – |
| O=C(N[C@H]1COC[C@@H]1O)c1cc(-c2ccc(Cl)cc2)nn(-c2cccc(F)c2)c1=O (relative stereo) [Example 134, 6-(4-Chlorophenyl)-2-(3-fluorophenyl)-N-(trans-4-hydroxytetrahydrofuran-3-yl)-3-oxo-2,3-dihydropyridazine-4-carboxamide] | 1.72e-07 | > 2e-05 | – |
| Cc1ccc(-c2cc(C(=O)NCC(O)C(F)(F)F)c(=O)n(-c3cc(F)cc(F)c3)n2)cc1 (stereo not shown) [Example 52, 2-(3,5-Difluorophenyl)-6-(4-methylphenyl)-3-oxo-N-(3,3,3-trifluoro-2-hydroxypropyl)-2,3-dihydropyridazine-4-carboxamide] | 1.17e-08 | > 2e-05 | – |
| O=C(NC(CO)CCO)c1cc(-c2ccc(Cl)cc2)nn(-c2cccc(F)c2)c1=O (single isomer, unassigned; (+)) [Example 225, (+)-6-(4-Chlorophenyl)-N-(1,4-dihydroxybutan-2-yl)-2-(3-fluorophenyl)-3-oxo-2,3-dihydropyridazine-4-carboxamide] | 2.41e-07 | > 2e-05 | – |
| O=C(NCC(O)C1CC1)c1cc(-c2ccc(Cl)cc2)nn(-c2cccc(F)c2)c1=O (single isomer, unassigned; (+)) [Example 192, (+)-6-(4-Chlorophenyl)-N-(2-cyclopropyl-2-hydroxyethyl)-2-(3-fluorophenyl)-3-oxo-2,3-dihydropyridazine-4-carboxamide] | 1.97e-07 | – | > 2e-05 |
| O=C(NC(CO)C1CCOC1)c1cc(-c2ccc(OC(F)(F)F)cc2)nn(-c2cccc(F)c2)c1=O (stereo not shown) [Example 174, 2-(3-Fluorophenyl)-N-[2-hydroxy-1-(tetrahydrofuran-3-yl)ethyl]-3-oxo-6-[4-(trifluoromethoxy)phenyl]-2,3-dihydropyridazine-4-carboxamide] | 3.33e-08 | > 2e-05 | – |
